The text below walks through data of patent publication US20020146679A1, “Method for creating endothelial cell dysfunction in cell culture” (priority 2001, published 2002).

Entries after “also recorded” stand apart in the source; their conditions may differ.

Assay [1] relates to EA hy926 cells. The assay can be described thus: Western blotting analysis of endothelial marker proteins. Format: cell-based, human. The settings on record: 6-day (chronic) TNFα treatment, 5% FBS. The procedure: The whole cell lysates were generated by suspending cell pellets with protein lysis buffer containing 10 mM Tris.CI (pH 7.6), 1 mM EDTA (pH 8.0), 100 mM NaCI, 1 μg/mL aprotinin, and 100 μg/mL phenylmethylsulfonyl fluoride. The lysates were sonicated for 15 seconds at output control level 4 with Sonifier 450 model manufactured by VWR Scientific products. Fifty microgram lysates protein for each sample was electrophoretically separated in 8% to 16% Tris-Glycine Gel and transferred to a nitrocellulose membrane. The proteins on the membrane were stained with PONCEAS solution to check if the proteins loading and transfer were even. The membranes were separately incubated with 5% dry milk Phosphate-buffered saline (PBS) at room temperature for 2 hours and followed by overnight incubation at 4° C. with fresh 5% dry milk PBS containing primary antibodies at 1:2000 dilution. The peroxidase conjugated secondary antibodies was diluted at 1:4000 dilution with 5% PBS buffer. The incubation with secondary antibody was carried out at room temperature for 1 hour. The membranes were then subject to staining with ECL solution and exposure to films.

Assay [2] relates to EA hy926 endothelial cells. The assay can be described thus: Tube formation assay on MATRIGEL (in vitro angiogenesis). Format: cell-based, human. As to conditions: TNFα exposure greater than 3 days (up to 6 days) in 5% FBS, then plated on matrigel. The procedure:
According to an aspect of the invention, EA hy926 (EA) cells are initially grown in standard endothelial cell culture medium consisting of MCDB 131 (Clonetics Corp.) supplemented with 10 fetal bovine serum (FBS) (Hyclone laboratories), 100 U/mL penicillin/streptomycin, 50 μg/mL gentamicin, and other endothelial growth supplements (EGM bullet kit, Clonetics Corp.). […] Cells were grown in these conditions for 6 to 7 days. EA cells are then dispersed by trypsinization, counted, suspended in EGM media containing […], and plated onto the surface of a MATRIGEL® basement membrane protein matrix (0.5 mL/well, dispensed into 24-well tissue culture plates according to the manufacturer's instructions) at a density of 5×10^5 cells per well (24 well plate). The cells were then placed in a CO2 incubator at 37° C. and observed over a 16- to 24-hour period for cell differentiation into tube-like structures resembling capillaries. […]
EBM medium and its supplement were purchased from Clonetics. […] EA cells were then dispersed by trypsinization, counted, suspended in EGM media containing 10% FBS, and plated onto the surface of a MATRIGEL® basement membrane matrix (0.5 mL/well, dispensed into 24-well tissue culture plates according to the manufacturer's instructions) at a density of 5×10^5 cells per well (24-well plate). […]

As to TNFα, in assay [1], the CD31 protein expression result is listed as “increased”, the PAI-1 protein expression result is listed as “increased”, the VCAM-1 protein expression result is reported as “increased” and the caveolin-1 protein expression entry was “increased”. The ecNOS protein expression result in assay [1] is “markedly decreased”. The serum-stimulated tube formation entry in assay [2] is “cells no longer form tubes; also recorded: fail to form tubes”.
